The record followed here is patent US20240368668A1, “SUBSTRATES AND BIOMARKERS OF ADAMTS7” (The Broad Institute, Inc., priority 2021, published 2024).

Square brackets hold non-standard residues; d marks the D form. Ends that are not written are not given here.

The first assay concerns mouse ADAMTS7. The experiment in a line: TMT10 TAILS N-terminomics, SMC2 experiment (process replicates, trypsin/AspN digest). The assay is classed as cell-based. Particulars: SMC2_TAILS HC; log fold change of N-terminal peptide, Ad-mADAMTS7 WT over EQ. The method, boiled down:
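Full-length mouse ADAMTS7 (WT or E373Q mutant, C-terminal 3xFLAG) or luciferase was transduced via adenovirus, 50 MOI, into HCA-SMC (SMC1, SMC2) or HUVEC. SMC1: pooled media, technical triplicates 400 ug; SMC2: process triplicates 300 ug; HUVEC: process triplicates 200 ug, bFGF2 10 ng/ml.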
In turn, “VCAN_3367 (FKNSSSAK; listed as Homo sapiens)” came in with a logFC.mWT.over.mEQ of 1.51.

Take “VIM_276 (YESVAAKNLQ; listed as Homo sapiens)”: the logFC.mWT.over.mEQ is reported as 0.83.

“VIM_322 (QVQSLTCEV; listed as Homo sapiens)” displayed a logFC.mWT.over.mEQ of 1.11.

Substance “ZSCAN4_25 (FQQSQGPAVQR; listed as Homo sapiens)” yielded a logFC.mWT.over.mEQ of 2.89.

The assay is the same for the next values; noted with them: SMC2_TAILS HC; log fold change, mWT over mEQ.
“ACTG1_105 (LTEAPLNPKANR; listed as Homo sapiens)” came in with a logFC.mWT.over.mEQ of 2.11.

The substance “ACTN4_5 (HAANQSYQYGPSSAGNGAGGGGSMG; listed as Homo sapiens)” showed a logFC.mWT.over.mEQ of 2.64.

“ADAM9_74 (GKEHIIHLER; listed as Homo sapiens)” came in with a logFC.mWT.over.mEQ of 4.31.

“ADAM10_86 (FKVETSNKVL; listed as Homo sapiens)” came in with a logFC.mWT.over.mEQ of 2.74.

“ADNP2_375 (SQPVGPVNK; listed as Homo sapiens)” came in with a logFC.mWT.over.mEQ of 0.75.

Take “AMER2_654 (LAGTTIRATACH; listed as Homo sapiens)”: the logFC.mWT.over.mEQ is listed as 0.90.

As for “APLP2_452 (LVETHLAR; listed as Homo sapiens)”, the logFC.mWT.over.mEQ stood at 2.59.

Take “APOA1_86 (EQLGPVTQEFW; listed as Homo sapiens)”: the logFC.mWT.over.mEQ stood at 1.88.

The substance “BMPER_43 (LTGSVAKCENEG; listed as Homo sapiens)” had a logFC.mWT.over.mEQ of 2.43.

On to “CALU_176 (FTAFLHPEEY; listed as Homo sapiens)”, for which the logFC.mWT.over.mEQ was found to be 2.38.

Regarding “CAP1_300 (FSAPKPQTSPSPKR; listed as Homo sapiens)”, the logFC.mWT.over.mEQ is on record as 2.81.

“CCL2_28 (INAPVTCCYNFTNR; listed as Homo sapiens)” had a logFC.mWT.over.mEQ of 1.46.

Regarding “CEP192_728 (DKSTAGR; listed as Homo sapiens)”, the logFC.mWT.over.mEQ came out at 2.95.

The substance “CTSB_109 (WAFGAVEAIS; listed as Homo sapiens)” came in with a logFC.mWT.over.mEQ of 1.73.

“DBN1_434 (APVEPATA; listed as Homo sapiens)” had a logFC.mWT.over.mEQ of 1.57.

The substance “DIS3L_75 (FPELKGIIFMQTACQAVQHQR; listed as Homo sapiens)” returned a logFC.mWT.over.mEQ of 1.78.

Consider “ECM1_38 (FQEVGYAAPPSPPLSR; listed as Homo sapiens)”, for which the logFC.mWT.over.mEQ is reported as 1.57.

Take “ECM1_44 (AAPPSPPLSR; listed as Homo sapiens)”: the logFC.mWT.over.mEQ turned out to be 2.54.

In turn, “ECM1_108 (QEAVPLQK; listed as Homo sapiens)” showed a logFC.mWT.over.mEQ of 3.34.

In turn, “EEF1G_23 (QYSGAQVR; listed as Homo sapiens)” gave a logFC.mWT.over.mEQ of 3.30.

For “EIF4B_426 (QTGTSTTSSR; listed as Homo sapiens)”, the logFC.mWT.over.mEQ came to 5.12.

With “EMSY_943 (QTVVQVLAVK; listed as Homo sapiens)”, the logFC.mWT.over.mEQ worked out at 0.92.

Consider “FBLN2_665 (FSQVASNTIPLPLPQPNTCK; listed as Homo sapiens)”, for which the logFC.mWT.over.mEQ is reported as 1.89.

“FLNA_689 (VNKPAEFTV; listed as Homo sapiens)” registered a logFC.mWT.over.mEQ of 6.12.

Turning to “FLNC_2649 (FVGQKNSFTV; listed as Homo sapiens)”, the logFC.mWT.over.mEQ is recorded as 3.97.

In turn, “FN1_35 ([code q]MVQPQSPVAVSQSKPGCY; not fully specified (residue 2); listed as Homo sapiens)” showed a logFC.mWT.over.mEQ of 2.08.

In the case of “FN1_99 (DKYTGNTYR; listed as Homo sapiens)”, the logFC.mWT.over.mEQ is on record as 1.43.

In turn, “FN1_607 (SSSGPVEVFIT; listed as Homo sapiens)” came in with a logFC.mWT.over.mEQ of 0.63.

Regarding “FN1_1693 (LQPTVEYVVSVYAQNPSG; listed as Homo sapiens)”, the logFC.mWT.over.mEQ is on record as 2.05.

On to “FN1_1780 (LQGLRPGSEYTVSVVALH; listed as Homo sapiens)”, for which the logFC.mWT.over.mEQ came out at 2.01.

Regarding “FN1_1805 (LIGTQSTAIPAPT; listed as Homo sapiens)”, the logFC.mWT.over.mEQ was determined as 1.73.

Substance “FN1_2113 (FVTHPGY; listed as Homo sapiens)” showed a logFC.mWT.over.mEQ of 1.57.

“FOXG1_235 (LNKCFVKVPRHY; listed as Homo sapiens)” registered a logFC.mWT.over.mEQ of 3.34.

Take “FSTL_1290 (LQKHQETA; listed as Homo sapiens)”: the logFC.mWT.over.mEQ is listed as 2.86.

Substance “HEG1_51 (GLELQLER; listed as Homo sapiens)” had a logFC.mWT.over.mEQ of 0.65.

For “HEG1_224 (FQTKSGTAS; listed as Homo sapiens)”, the logFC.mWT.over.mEQ turned out to be 3.25.

With “KCND1_436 (RLAKSGTTNAFLQYKQNGGLE; listed as Homo sapiens)”, the logFC.mWT.over.mEQ is recorded as 1.74.

For “KRT28_2 (SLQFSNGSR; listed as Homo sapiens)”, the logFC.mWT.over.mEQ worked out at 2.22.

On to “LASP1_182 (SYGGYKEPAAPVSIQR; listed as Homo sapiens)”, for which the logFC.mWT.over.mEQ is listed as 1.01.

“LOXL1_157 (SVSASAFASTYR; listed as Homo sapiens)”: the logFC.mWT.over.mEQ came out at 2.90.

Turning to “LOX_60 (LGSQYQPQR; listed as Homo sapiens)”, the logFC.mWT.over.mEQ is 1.59.

“LOX_125 (FQAGYSTSR; listed as Homo sapiens)” yielded a logFC.mWT.over.mEQ of 3.33.

The same assay, now with this note: TAILS HC Overlap; SMC2; log fold change mouse ADAMTS7 WT over catalytically inactive EQ.
“FSTL1_290 (LQKHQETA; listed as Homo sapiens)”: the “SMC2 logFC.mWT.over.mEQ” value was found to be 2.86.

Still in this assay, the particulars now being: log fold change, ADAMTS7 WT over EQ.
As for “QSOX1_558 (VAAAPELAMGALELESR; listed as Homo sapiens)”, the logFC.mWT.over.mEQ stood at 1.13.

“SDC4_106 (LEENEVIPKR; listed as Homo sapiens)”: the logFC.mWT.over.mEQ is recorded as 1.67.

The substance “SERPINH1_27 (AAAPGTAEKLSPKAATLAER; listed as Homo sapiens)” came in with a logFC.mWT.over.mEQ of 3.30.

As for “SMOC1_35 (LISDRDPQCNLHCSR; listed as Homo sapiens)”, the logFC.mWT.over.mEQ is recorded as 1.62.

Turning to “SPOCK1_126 (HWVGPSNLVK; listed as Homo sapiens)”, the logFC.mWT.over.mEQ is 0.93.

Turning to “SRGN_50 (LEEKGPMFELLPGESNKIPR; listed as Homo sapiens)”, the logFC.mWT.over.mEQ came to 3.28.

On to “SRGN_51 (EEKGPMFELLPGESNKIPR; listed as Homo sapiens)”, for which the logFC.mWT.over.mEQ was 1.79.

Regarding “SRGN_60 (LPGESNKIPR; listed as Homo sapiens)”, the logFC.mWT.over.mEQ was found to be 3.25.

The substance “SRGN_62 (GESNKIPR; listed as Homo sapiens)” had a logFC.mWT.over.mEQ of 3.26.

“STC1_37 (QNSAEVVR; listed as Homo sapiens)” showed a logFC.mWT.over.mEQ of 4.78.

Regarding “STC2_239 (HGEAGHHLPEPSSR; listed as Homo sapiens)”, the logFC.mWT.over.mEQ was 1.70.

Take “STC2_244 (HHLPEPSSR; listed as Homo sapiens)”: the logFC.mWT.over.mEQ is given as 1.35.

Take “TGFBI_24 (GPAKSPYQLVLQHSR; listed as Homo sapiens)”: the logFC.mWT.over.mEQ stood at 0.71.

In the case of “TGFBI_43 ([code q]HGPNVCAVQKVIGTNR; not fully specified; listed as Homo sapiens)”, the logFC.mWT.over.mEQ came to 0.75.

“TGFBI_50 (AVQKVIGTNR; listed as Homo sapiens)” showed a logFC.mWT.over.mEQ of 0.64.

As for “TGFBI_208 (GIVTVNCAR; listed as Homo sapiens)”, the logFC.mWT.over.mEQ turned out to be 0.59.

The substance “TGFBI_276 (TLLAPT[code n]EAFEKIPSETLNR; not fully specified; listed as Homo sapiens)” had a logFC.mWT.over.mEQ of 0.66.

Substance “TGFBI_497 (VLTPPMGTVMDVLKGDNR; not fully specified (residue 6); listed as Homo sapiens)” registered a logFC.mWT.over.mEQ of 0.61.

As to “TGFBI_524 (SAGLTETLNR; listed as Homo sapiens)”, the logFC.mWT.over.mEQ stood at 0.66.

“TGFBI_534 (EGVYTVFAPTNEAFR; listed as Homo sapiens)” gave a logFC.mWT.over.mEQ of 0.82.

With “TG_1017 (GASALLR; listed as Homo sapiens)”, the logFC.mWT.over.mEQ was 3.05.

“THBS1_972 (QNDPNWVVR; listed as Homo sapiens)” had a logFC.mWT.over.mEQ of 3.59.

Turning to “TLN1_1501 (HTSALCNSCR; listed as Homo sapiens)”, the logFC.mWT.over.mEQ stood at 1.48.

Turning to “TMEM132A_52 (LLDAPEHFR; listed as Homo sapiens)”, the logFC.mWT.over.mEQ is on record as 2.95.

“VASN_138 (HIQPGAFDTLDR; listed as Homo sapiens)” showed a logFC.mWT.over.mEQ of 1.45.

“VASP_229 (AIAGAKLR; listed as Homo sapiens)” came in with a logFC.mWT.over.mEQ of 4.56.

“VIM_433 (LVDTHSKR; listed as Homo sapiens)” came in with a logFC.mWT.over.mEQ of 2.79.
